Experimental data: patent US20230333019A1, “TWO-PHOTON FLUORESCENT PROBES FOR SIMULTANEOUSLY DETECTING CALCIUM IONS IN ORGANELLES AND LYSOSOMAL PROTONS” (Korea University Research and Business Foundation, priority 2022, published 2023)
Read-outs that look alike come from different tables or passages of the source. Marks after values point to notes of the source that are not given here.

Assays:
[1] = Fluorescence titration with Ca2+ in calcium calibration buffer (apparent dissociation constant, FEF); format: binding; details: for FEF, fluorescence enhancement factor (Fmax-Fmin)/Fmin: one-photon, complexation with Ca2+ in CB
Method: (§1) A dissociation constant (Kd) for binding the probe to Ca^2+ was measured using a conventionally known method. Calcium calibration buffers (CBs; 10 mM 3-[N-morpholino]propanesulfonic acid [MOPS], 100 mM KCl, pH 7.2) containing Ca^2+ at concentrations of 0 to 40 μM were prepared using a calcium calibration buffer kit (Biotium, CA, USA). A buffer containing […] or more of Ca^2+ was prepared by adding an appropriate amount of CaCl2 to a MOPS buffer. Probes (BCa-3°mem at a concentration of 0.3 μM and BCa-1 and BCa-2mito at concentrations of 0.1 μM) were added to calcium CB and fluorescence intensity was measured. Each Kd was calculated through a resultant titration curve. In addition, in order to evaluate a fluorescence titration of FHEt-1lyso, the fluorescence intensity was measured by adding FHEt-1lyso probe at a concentration of 0.6 μM in a universal buffer (UB; 0.1 M citric acid, 0.1 M KH2PO4, 0.1 M Na2B4O7, 0.1 M tris[hydroxymethyl]aminomethane, 0.1 M KCl) at pH 4 to 11. The pKa value was calculated through a titration curve.

[2] = test system: HeLa cells; assay: TPM detection of cytoplasmic Ca2+, histamine-induced oscillation; format: cell-based
Method: The mixture was cultured (incubated) at 37° C.
Before and after adding histamine dihydrochloride (100 μM, Sigma-Aldrich) to HBSS, Ca^2+ oscillation was evaluated by TPEF intensity monitoring in HeLa cells labeled with BCa-1-AM (2 μM).
Whether BCa-1 may detect Ca^2+ in the cytoplasm was evaluated. […] The increase and decrease of the TPEF intensity were repeated for 800 seconds, which was consistent with the results of previous histamine-induced Ca oscillation studies. Accordingly, it was confirmed that BCa-1 may target the cytoplasm and detect Ca^2+ in the cytoplasm (FIG. 16).

[3] = test system: HeLa cells; assay: Dual-color TPM of cytoplasmic Ca2+ and lysosomal pH, monensin; format: cell-based; details: monensin 20 μM
Method: To simultaneously monitor changes in lysosomal pH and cytoplasmic [Ca^2+], HeLa cells were co-labeled with a mixture of BCa-1-AM (3 μM) and FHEt-1lyso (1 μM). The cells were washed twice with RB, once with RB containing 5 mM EGTA, and twice with RB containing 0.1 mM EGTA. The TPEF intensity of the cells was measured before and after adding monensin (20 μM, Sigma-Aldrich) to EtOH.
Whether BCa-1 and FHEt-1lyso could be used to simultaneously monitor changes in cytoplasmic [Ca^2+ ] and lysosomal pH during dual-color TPM was evaluated. […] Accordingly, it was confirmed that BCa-1 and FHEt-1lyso could be used to simultaneously monitor changes in cytoplasmic [Ca^2+] and lysosomal pH in live cells during dual-color TPM.

[4] = test system: HeLa cells
Method: HeLa cells were purchased from the Korean Cell Line Bank (Seoul, Korea). […] Before two days of imaging, HeLa cells (5×10^4/mL) were plated on a confocal glass bottom dish (#200350, SPL Life Sciences, Gyonggi-do, Korea). The cells were washed with an aqueous buffer (pH 7.4), a Hank's balanced salt solution (HBSS; LB003-02, WelGene Inc., Gyeongsangbuk-do, Korea), or a Ringer's solution (RB; 124 mM NaCl, 26 mM NaHCO3, 10 mM d-glucose, 1.3 mM MgSO4, 3 mM KCl, 1.25 mM NaH2PO4) unless otherwise specified. Thereafter, the probe (0.5 to 3 μM) and Pluronic® F-127 (0.03%, Sigma-Aldrich, St. Louis, MO, USA) were added to the cells in one of the three aqueous buffers (1.0 mL). The mixture was cultured (incubated) at 37° C. (BCa-1-AM and BCa-2mito-AM) for 40 minutes or at room temperature (RT; BCa-3mem) for 10 minutes. The cells labeled with the probe were washed 3 times with each corresponding buffer before imaging.

[5] = Fluorescence quantum yield; format: physicochemical
Method: Absorption and emission spectra of a two-photon probe (TP probe) were measured using an Agilent 8453 diode array UV-Vis spectrophotometer and a Hitachi fluorescence spectrophotometer F-7000 system using a previously reported method (Chem. Asian J. 2015, 10(10):2240-2249). Fluorescence quantum yield (Φ) was measured by a method used in another study (Anal. Chem. 2011, 83(4):1232-1242) using Coumarin 540A. Two-photon (TP) excitation was implemented using a mode-locked Ti:sapphire laser (Chameleon, 90 MHz, 200 fs; Coherent Inc.).
All of the two-photon probe compounds emitted weak fluorescence at a maximum emission value (4) of 464 to 466 nm and fluorescence quantum yields (0) of 0.027 to 0.063 in CB (10 mM MOPS, 100 mM KCl, pH 7.2). […] The low fluorescence quantum yield (0) values observed with these probes may contribute to efficient photo-induced electron transfer (PeT) from the receptor to the fluorophore (Table 1).

[6] = Two-photon action cross-section (Φδ); format: physicochemical; details: for Φδmax, maximum TP action cross-section: 750 nm, excess Ca2+ (BCa probes) or pH 4.3 (FHEt-1lyso), error ±15%; for Φδ values: absence of Ca2+ (BCa-3°mem) / pH 11 (FHEt-1lyso)
Method: (§2) Φδ and Φδeff for the probes were evaluated using the fluorescence method as reported in other studies (Chem. Asian J. 2015, 10(10):2240-2249).
To evaluate the brightness of the TPM image, a TP action cross-section (Φδ) was measured by a conventionally known method.

[7] = test system: HeLa cells; assay: Effective TP action cross-section (Φδeff) in probe-labeled cells; format: cell-based; details: 750 nm
Method: as §2

[8] = Metal ion selectivity, relative fluorescence intensity in MOPS buffer; details: for Response to Zn2+ and Mn2+: 100 μM; for Response to Zn2+ and Mn2+ / Response to Mg2+, Fe2+, Cu2+, Co2+: MOPS pH 7.2; for Response to Mg2+, Fe2+, Cu2+, Co2+: Mg2+ 2 mM, Co2+ 100 μM; for Selectivity for Ca2+: versus competing metal ions
Method: FIG. 8 is graphs showing relative fluorescence intensities of (a) BCa-1, (b) BCa-2mito, or (c) BCa−3°mem in the presence of 2 mM Mg^2+ or 100 μM Zn^2+, Mn^2+, Fe^2+, Cu^2+, or Co^2+ (black bars) and according to subsequent addition of 100 μM Ca^2+ (red bars) in a MOPS buffer (30 mM 3[N-morpholino]propanesulfonic acid, 100 mM KCl, pH 7.2). At this time, excitation wavelengths are (a) 363 nm, (b) 355 nm, and (c) 350 nm, respectively.

[9] = Water solubility in aqueous buffer; format: physicochemical
Method: The water solubility of BCa-1, BCa-2mito, BCa−3°mem, and FHEt-1lyso in an aqueous buffer (pH 7.4) was evaluated using a conventional fluorescence technique (Chem. Asian J. 2015, 10(10):2240-2249).

[10] = test system: HeLa cells; assay: TPM detection of Ca2+ in plasma membrane; format: cell-based
Method: HeLa cells were purchased from the Korean Cell Line Bank (Seoul, Korea). The cells were cultured by a method described in previous studies (Chem. Asian J. 2015, 10(10):2240-2249). Before two days of imaging, HeLa cells (5×10^4/mL) were plated on a confocal glass bottom dish (#200350, SPL Life Sciences, Gyonggi-do, Korea). The cells were washed with an aqueous buffer (pH 7.4), a Hank's balanced salt solution (HBSS; LB003-02, WelGene Inc., Gyeongsangbuk-do, Korea), or a Ringer's solution (RB; 124 mM NaCl, 26 mM NaHCO3, 10 mM d-glucose, 1.3 mM MgSO4, 3 mM KCl, 1.25 mM NaH2PO4) unless otherwise specified. Thereafter, the probe (0.5 to 3 μM) and Pluronic® F-127 (0.03%, Sigma-Aldrich, St. Louis, MO, USA) were added to the cells in one of the three aqueous buffers (1.0 mL). The mixture was cultured (incubated) at 37° C. (BCa-1-AM and BCa-2mito-AM) for 40 minutes or at room temperature (RT; BCa-3mem) for 10 minutes. The cells labeled with the probe were washed 3 times with each corresponding buffer before imaging.
(§3) TP microscopy (TPM) images were obtained using spectral confocal and multiphoton microscopy (Leica TCS SP2; Leica). TPM images of probe-labeled HeLa cells were obtained using a Leica TCS SP2 using a conventional method (Chem. Asian J. 2015, 10(10):2240-2249). Time-dependent changes in TPEF intensity were monitored and measured at intervals of 1.6 to 2.0 seconds in the xyt mode upon excitation at 750 nm. To monitor changes in [Ca^2+ ] in the plasma membrane, the cells were washed successively with RB containing 5, 0.1, and 0 mM of EGTA and then incubated with BCa-3mem (2 μM). The TPEF intensity was measured before and after adding CaCl2 (2 mM) to RB and EGTA (2 mM) in distilled water.
First, whether BCa-3mem may detect Ca^2+ in the plasma membrane was evaluated.

[11] = Fluorescence titration of FHEt-1lyso against pH in universal buffer (pKa); format: physicochemical; details: for pKa: universal buffer (UB)
Method: as §1
Meanwhile, the fluorescence titration of FHEt-1lyso was performed in UB at pH 4 to 11. […] Therefore, it was confirmed that FHEt-1lyso may detect pH in live cells.

[12] = test system: HeLa cells; assay: TPM lysosome colocalization with BLT-blue; format: cell-based
Description: as §3
Whether FHEt-1lyso may detect H^+ in the lysosome was evaluated. […] Therefore, it was confirmed that FHEt-1lyso had the ability to detect H^+ in the lysosome by targeting the lysosome.

[13] = from fluorescence titration curve, CB, read-out: Dissociation constant Kd
[14] = in the absence of excess Ca2+, CB pH 7.2
[15] = in the presence of excess Ca2+ (in parentheses)

SMILES | Kd [1, 13] [nM] | FEF, fluorescence enhancement factor (Fmax-Fmin)/Fmin [1] | Fluorescence quantum yield Φ [5, 14] | Fluorescence quantum yield Φ [5, 15] | Φδmax, maximum TP action cross-section [6] | Φδeff, effective TP action cross-section [7] [GM] | Response to Zn2+ and Mn2+ [8] | Response to Mg2+, Fe2+, Cu2+, Co2+ [8] | Selectivity for Ca2+ [8] | Φδ values [6] | further results
COCCOCCOc1ccc2oc(-c3ccc4cc(NCC(=O)Nc5ccc(N(CC(=O)OCOC(C)=O)CC(=O)OCOC(C)=O)c(OCCOc6ccccc6N(CC(=O)OCOC(C)=O)CC(=O)OCOC(C)=O)c5)ccc4c3)nc2c1 [BCa-1-AM] | 180 |  |  |  |  |  |  |  |  |  | Duration of repeated increase and decrease of TPEF intensity ([2]; after histamine): 800 s; TPEF intensity on adding histamine ([2]; histamine 100 μM, cytoplasm): increased and then decreased; TPEF intensity in the cytoplasm on monensin addition ([3]; 380 to 480 nm): simultaneously increased
CC(=O)OCOC(=O)CN(CC(=O)OCOC(C)=O)c1ccc(NC(=O)CNc2ccc3cc(-c4nc5cc(OCCC[P+](c6ccccc6)(c6ccccc6)c6ccccc6)ccc5o4)ccc3c2)cc1OCCOc1c(F)cccc1N(CC(=O)OCOC(C)=O)CC(=O)OCOC(C)=O.[Br-] [BCa-2mito-AM] | 2700 |  |  |  |  |  |  |  |  |  | Pearson's colocalization coefficient (A) ([4]; with MitoTracker Red): 0.84
O=C([O-])CN(CC(=O)[O-])c1ccc(NC(=O)CNc2ccc3cc(-c4nc5cc(OCCC[P+](c6ccccc6)(c6ccccc6)c6ccccc6)ccc5o4)ccc3c2)cc1OCCOc1c(F)cccc1N(CC(=O)[O-])CC(=O)[O-].[Br-].[K+].[K+].[K+].[K+] [BCa-2mito] | 2700 | 10 | 0.049^d | (0.50) | 70 10^−50 cm^4s/photon (GM) | 2000 | moderate | weak | high |  | TPEF intensity in the cytoplasm on FCCP treatment ([4]; FCCP): increased temporarily in the cytoplasm and then gradually decreased to a baseline; TPEF intensity in the mitochondria on FCCP treatment ([4]; FCCP): rapidly decreased
CCCCCCOc1ccc2oc(-c3ccc4cc(NCC(=O)Nc5ccc(N(CC(=O)[O-])CC(=O)[O-])c(OCC(=O)N6CCOCC6)c5)ccc4c3)nc2c1.[K+].[K+] [BCa-3mem] |  |  |  |  |  | 4800 |  |  |  |  | Aqueous solubility [9]: too low; TPEF intensity upon addition of Ca2+ ([10]; Ca2+ 2 mM): increased; TPEF intensity during treatment with EGTA ([10]; EGTA 2 mM): decreased; Persistence of plasma membrane signals ([10]; labeled HeLa cells): at least 1 hour
O=C([O-])CN(CC(=O)[O-])c1ccc(NC(=O)CNc2ccc3cc(-c4nc5ccccc5o4)ccc3c2)cc1OCC(=O)N1CCOCC1.[K+].[K+] [BCa-3°mem] |  | 26 | 0.027^d | (0.72) | 60 10^−50 cm^4s/photon (GM) | 4800 | moderate | weak | high | quite low | FEF, fluorescence enhancement factor (in parentheses) ([1]; TP process, complexation with Ca2+): (25); Kd ([1]; TP process, read-out: Kd^TP): 95000 nM; TPM images in contrast to BCa-3mem ([10]; HeLa cells, 0.5 μM probe): much darker and blurry
CCN(CC)c1ccc(NC(=O)CNc2ccc3c(c2)C(C)(CC(=O)NCCN(C)C)c2cc(C(C)=O)ccc2-3)cc1 (centres unmarked) [FHEt-1lyso] |  |  |  |  | 70 10^−50 cm^4s/photon (GM) | 21000 |  |  |  | quite low | FEF, fluorescence enhancement factor (in parentheses) ([11]; TP process, protonation, UB): (24); FEF, fluorescence enhancement factor ([11]; one-photon, protonation, UB): 25; pKa ([11]; TP process, UB, read-out: pKa^TP (in parentheses)): 6.6; pKa ([11]; one-photon fluorescence titration, UB pH 4 to 11, read-out: pKa): 6.5; Fluorescence quantum yield Φ ([5]; at pH 4.3 (in parentheses)): (0.33); Pearson's colocalization coefficient (A) [12]: 0.86; TPEF intensity in the lysosome on monensin addition ([3]; 550 to 660 nm): rapidly decreased
